The results in this text go back to BindingDB's records for doi:10.1016/j.bioorg.2016.12.002 (China Pharmaceutical University, 2017).

Hepatocyte growth factor receptor/Proto-oncogene tyrosine-protein kinase receptor Ret, sequence (P08581 whole entry): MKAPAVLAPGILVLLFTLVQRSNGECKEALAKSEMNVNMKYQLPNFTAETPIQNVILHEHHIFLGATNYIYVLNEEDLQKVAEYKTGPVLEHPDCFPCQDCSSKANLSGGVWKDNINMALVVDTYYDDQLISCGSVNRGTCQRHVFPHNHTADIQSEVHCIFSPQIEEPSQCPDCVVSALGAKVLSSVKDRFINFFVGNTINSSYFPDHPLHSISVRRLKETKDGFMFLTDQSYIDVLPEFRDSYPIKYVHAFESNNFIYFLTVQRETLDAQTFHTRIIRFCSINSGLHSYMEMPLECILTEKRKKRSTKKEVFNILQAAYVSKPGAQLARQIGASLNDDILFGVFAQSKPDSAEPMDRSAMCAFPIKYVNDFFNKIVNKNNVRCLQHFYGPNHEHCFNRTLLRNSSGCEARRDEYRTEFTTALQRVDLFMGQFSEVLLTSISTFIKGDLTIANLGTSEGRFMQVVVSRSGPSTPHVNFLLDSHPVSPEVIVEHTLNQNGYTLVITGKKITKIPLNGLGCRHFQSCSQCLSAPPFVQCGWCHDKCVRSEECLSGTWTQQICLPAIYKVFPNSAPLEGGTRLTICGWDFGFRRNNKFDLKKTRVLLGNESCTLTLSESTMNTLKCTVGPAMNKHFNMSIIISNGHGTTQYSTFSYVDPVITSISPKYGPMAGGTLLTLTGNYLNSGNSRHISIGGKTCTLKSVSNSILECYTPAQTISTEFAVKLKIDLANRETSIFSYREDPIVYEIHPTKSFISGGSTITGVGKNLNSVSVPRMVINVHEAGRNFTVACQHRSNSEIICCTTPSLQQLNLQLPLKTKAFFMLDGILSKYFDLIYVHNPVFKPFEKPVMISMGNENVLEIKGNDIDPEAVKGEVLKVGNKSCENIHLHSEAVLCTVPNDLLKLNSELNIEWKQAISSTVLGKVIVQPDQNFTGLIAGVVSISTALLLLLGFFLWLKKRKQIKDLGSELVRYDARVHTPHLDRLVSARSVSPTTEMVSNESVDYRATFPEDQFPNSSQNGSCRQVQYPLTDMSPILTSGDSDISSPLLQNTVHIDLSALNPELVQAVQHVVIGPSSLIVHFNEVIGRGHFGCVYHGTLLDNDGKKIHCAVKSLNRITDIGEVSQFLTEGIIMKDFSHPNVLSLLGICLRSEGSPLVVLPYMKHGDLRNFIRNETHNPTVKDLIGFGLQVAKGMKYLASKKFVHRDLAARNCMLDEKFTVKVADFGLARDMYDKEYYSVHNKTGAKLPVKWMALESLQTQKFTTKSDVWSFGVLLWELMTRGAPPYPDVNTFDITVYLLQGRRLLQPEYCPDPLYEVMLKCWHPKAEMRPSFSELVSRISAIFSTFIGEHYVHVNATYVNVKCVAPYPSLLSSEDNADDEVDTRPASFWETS
Hepatocyte growth factor receptor/Proto-oncogene tyrosine-protein kinase receptor Ret, sequence (P07949 whole entry): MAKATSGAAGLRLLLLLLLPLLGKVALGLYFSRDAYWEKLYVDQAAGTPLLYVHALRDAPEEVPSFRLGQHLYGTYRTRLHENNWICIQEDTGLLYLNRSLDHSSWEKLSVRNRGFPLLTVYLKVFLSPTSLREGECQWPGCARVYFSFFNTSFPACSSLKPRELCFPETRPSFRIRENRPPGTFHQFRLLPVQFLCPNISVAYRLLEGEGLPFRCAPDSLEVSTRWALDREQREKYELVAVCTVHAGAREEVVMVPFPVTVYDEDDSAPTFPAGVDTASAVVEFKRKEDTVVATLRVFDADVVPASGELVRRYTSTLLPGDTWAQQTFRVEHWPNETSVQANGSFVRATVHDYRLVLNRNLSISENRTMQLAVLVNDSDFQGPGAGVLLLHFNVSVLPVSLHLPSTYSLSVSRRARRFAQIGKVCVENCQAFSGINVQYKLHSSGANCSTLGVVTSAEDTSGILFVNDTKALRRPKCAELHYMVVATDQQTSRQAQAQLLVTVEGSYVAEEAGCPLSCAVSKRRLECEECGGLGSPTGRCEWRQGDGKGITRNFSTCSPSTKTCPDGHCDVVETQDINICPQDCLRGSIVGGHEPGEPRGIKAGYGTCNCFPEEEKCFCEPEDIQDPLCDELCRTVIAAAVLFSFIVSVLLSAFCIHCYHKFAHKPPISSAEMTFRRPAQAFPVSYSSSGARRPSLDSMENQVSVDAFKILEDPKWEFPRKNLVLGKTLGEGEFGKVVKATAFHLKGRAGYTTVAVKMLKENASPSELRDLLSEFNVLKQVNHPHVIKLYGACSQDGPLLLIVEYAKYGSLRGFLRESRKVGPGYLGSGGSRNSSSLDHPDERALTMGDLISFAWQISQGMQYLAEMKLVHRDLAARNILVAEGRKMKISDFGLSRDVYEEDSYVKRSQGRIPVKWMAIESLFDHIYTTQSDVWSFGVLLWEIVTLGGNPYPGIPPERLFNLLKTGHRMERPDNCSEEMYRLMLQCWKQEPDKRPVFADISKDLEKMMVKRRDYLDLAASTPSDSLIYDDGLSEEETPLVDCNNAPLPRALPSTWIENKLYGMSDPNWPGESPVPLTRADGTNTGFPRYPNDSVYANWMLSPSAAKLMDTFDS

The target in the assay is Hepatocyte growth factor receptor/Proto-oncogene tyrosine-protein kinase receptor Ret (Homo sapiens, UniProt P07949+P08581). Nature of the assay: In Vitro c-Met Enzyme Assay. As for the experimental part:
The c-Met kinase activity as tested with enzyme-linked immunosorbent assays (ELISAs) as previously reported protocol [Qiang et al., Bioorg. Med. Chem., 24:3353-3358; Shi et al., Bioorg. Med. Chem., 22:4735-4744]. Briefly, reaction cocktail containing c-met kinase and various concentrations of measured compound or 0.1% DMSO (negative control) was incubated at 37 °C for five minutes. Then the mixture of ATP and substrate peptide was added and incubated for another 30 min. Afer that, the reaction was terminated and transferred into a pre-coated 96-well plate, and incubated for another 1 h at 37 °C. Phosphate-buffered saline (PBS) containing 0.1% Tween 20 (T-PBS) was applied to wash the plate three times. anti-phosphotyrosine (PY99) antibody was then added. Horseradish peroxidase-conjugated goat anti-mouse IgG was added after 30 min. Finally, the plate was analyzed with multi-well spectrophotometer at […].
Consider `Clc1ccc(-c2cn3cccc(COc4nnc5ccc(Cl)nn45)c3n2)c(Cl)c1` [6-Chloro-3-((2-(2,4-dichlorophenyl)imidazo[1,2-a]pyridin-8-yl)methoxy)-[1,2,4]triazolo[4,3-b] pyridazine (7g)], for which half-maximal inhibition (IC50) required 12.2 µM.

`Clc1ccc(Cl)c(-c2cn3cccc(COc4nnc5ccc(Cl)nn45)c3n2)c1` [6-chloro-3-((2-(2,5-dichlorophenyl)imidazo[1,2-a]pyridin-8-yl)methoxy)-[1,2,4]triazolo[4,3-b] pyridazine (7e)] returned an IC50 of 12.3 µM.

On to `COc1ccc2c(OCc3nnc4ccc(-c5ccccc5)nn34)ccnc2c1` [7-methoxy-4-({6-phenyl-[1,2,4]triazolo[4,3-a]pyridazin-3-yl}methoxy)quinoline], for which 0.06 µM corresponded to half-maximal inhibition (IC50).

What is called IC50 is the concentration that gives 50% inhibition. The low end stands for greater potency in that assay, the high end for weaker potency in that assay.
